In one series the test system is carageenan-induced edema. The series can be described thus: Carrageenan-induced rat paw edema test (anti-inflammatory activity). Type of series: in vivo, Sprague-Dawley rats. As to conditions: carrageenan-induced rat paw edema, defined in Example 397; for inhibition in vivo at 50 mg/kg: po, 3 h, read-out: % Protection. Put shortly:
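Edema was raised by sub-plantar injection of 1% carrageenan into the right hind paw, 1 h after dosing 18 h-fasted male/female Sprague-Dawley rats (150-250 g) with 50 mg/kg p.o. in 0.1% CMC. Swelling was measured by displacement 3 h later and expressed as % protection against saline control.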
In general terms: The carrageenan paw model is a standard test of acute inflammation.

The test system of the next series is NF-κB. The series can be described thus: NF-κB inhibitor screen: basal NF-κB-dependent luciferase expression in HEK/NF-κB cell line. It counts as cell-based. As to conditions: for inhibition at 1 µM: read-out: NFkB inhibition @ 1 uM; for inhibition of basal NF-κB-dependent luciferase expression: 3.3 μM (FIG. 12). The text has this:
Development of NF-κB and AP-1 Screens: Two HEK293 cell lines were purchased from Panomics. One cell line was stably transfected with a plasmid in which luciferase expression is regulated by six copies of the NF-κB transcriptional element (5′-[…]-3′); and the other cell line was stably transfected with a plasmid in which luciferase expression is regulated by three copies of the AP-1 transcriptional element (TGACTAA). To test the biological activity of the promoters, the HEK/NF-κB cell line was stimulated with TNF-α (20 ng/ml) for 24 hours, and the HEK/AP-1 cell line was stimulated with PMA (10 ng/ml) for 24 hours. […] In addition, a pyrimidine carboxyimide that had previously been shown (ref. 58) to be an inhibitor of transcription mediated by NF-κB and AP-1 reduced luciferase activity by approximately 40% in each of the NF-κB and AP-1 cell lines.
The above two assays analyzed the effects of the compounds on post-transcriptional gene regulation, which is known to play a key role in cancer and inflammation. By contrast, the NF-κB assay and the following assay (AP-1) test whether the compounds act at the transcriptional level. Thirty-nine representative compounds were screened in an HEK/NF-κB cell line. HEK cells were stably transfected with a plasmid expressing luciferase under the control of the NF-κB promoter. These transfected cells were plated on a 96-well plate. As above, initial screening was carried out at 1.0 μM by adding compound in DMSO (0.3%) twenty-four hours after plating. Each compound was added to each of triplicate wells. DMSO (0.3%) was added to one set of wells as a control. Luciferase activity was determined using Promega's Brite-Glo kit, and the mean for each sample was normalized to that for DMSO.
The fourteen representative compounds identified in the eIF4E screen as interesting (Numbered 2, 3, 4, 6, 8, 11, 15, 20, 21, 24, 25, 32, 33, and 35) were then tested for luciferase activity in a six-point dose response (10 nM, 33 nM, 100 nM, 330 nM, 1000 nM, and 3300 nM). Screening was carried out as described above by monitoring the effects of the compounds on basal NF-κB-dependent luciferase expression. Each dose was used out in triplicate, and repeated between two and four times. Results were normalized by the average expression level at the lowest concentration level, as described above.

A further series concerns AP-1. Nature of the series: AP-1 inhibitor screen: basal AP-1-dependent luciferase expression in HEK/AP-1 cell line. It counts as cell-based. As to conditions: 1 uM, determined as described in Example 398; for inhibition at 1 µM: AP1. The source says:
Development of NF-κB and AP-1 Screens: Two HEK293 cell lines were purchased from Panomics. One cell line was stably transfected with a plasmid in which luciferase expression is regulated by six copies of the NF-κB transcriptional element (5′-[…]-3′); and the other cell line was stably transfected with a plasmid in which luciferase expression is regulated by three copies of the AP-1 transcriptional element (TGACTAA). To test the biological activity of the promoters, the HEK/NF-κB cell line was stimulated with TNF-α (20 ng/ml) for 24 hours, and the HEK/AP-1 cell line was stimulated with PMA (10 ng/ml) for 24 hours.
HEK cells were stably transfected with a plasmid expressing luciferase under the control of the AP-1 promoter. The transfected cells were plated on a 96-well plate for 24 hr. Then 1.0 μM of each compound in DMSO (0.3%) was added to triplicate wells and incubated for 48 hr. DMSO (0.3%) was added to one set of triplicate wells as a control. Luciferase activity was determined using Promega's Brite-Glo kit, and the mean for each sample was normalized to that for DMSO.
Screening was carried out as described above, monitoring the compounds' effects on basal AP-1-dependent luciferase expression. Each dose-response experiment was carried out in triplicate and repeated between two and four times.

[1] abbreviates: 1 uM, determined as described in Example 398.

Like-named read-outs stand apart in the source and are kept apart here.

On to `CCOC(=O)Nc1nc(C)c(-c2nc3ccccc3c(=O)n2-c2cccc(C)c2)s1`, for which the melting point lay in the range of 210 to 211 °C.

`COC(=O)Nc1nc(C)c(-c2nc3ccccc3c(=O)n2-c2cccc(C)c2)s1` returned a melting point of 232 to 233 °C.

For `Cc1cnc(-c2cc(-c3ccccc3)c(N3CCOCC3)s2)cc1OCC(F)(F)F` [Example 41, 4-{5-[5-Methyl-4-(2,2,2-trifluoro-ethoxy)-pyridine-2-yl]-3-phenyl-thiophene-2-yl}-morpholine], the melting point lay in the range of 145 to 147 °C.

Compound `Cc1nc(NC(=O)c2ccco2)sc1C(=O)c1sc(NC(=O)c2ccco2)nc1C` [Example 122, Bis-[2-(2-Furoyl-amino)-4-methyl-thiazole-5-yl]-methanone] yielded a melting point of 198 to 199 °C.

In the case of `CNc1nc(-c2ccccc2)c(-c2nc3ccccc3c(=O)n2-c2ccccc2C)s1` [Example 173, 2-(2-methylamino-4-phenyl-thiazol-5-yl)-3-o-tolyl-3H-quinazolin-4-one], the melting point lay within 220 to 225 °C.

As to `Cc1ccccc1-n1c(-c2sc(Nc3ccccc3)nc2-c2ccccc2)nc2ccccc2c1=O` [Example 174, 3-o-Tolyl-2-(4-phenyl-2-phenylamino-thiazol-5-yl)-3H-quinazolin-4-one], the melting point was in the range of 141 to 143 °C.

Compound `Cc1ccccc1-n1c(-c2sc(NC(=O)c3ccccc3)nc2-c2ccccc2)nc2ccccc2c1=O` [Example 175, N-[5-(4-Oxo-3-o-tolyl-3,4-dihydro-quinazolin-2-yl)-4-phenyl-thiazole-2-yl]benzamide] displayed a melting point above 275 °C.

Regarding `CCOC(=O)Nc1nc(C)c(-c2nc3ccccc3c(=O)n2-c2ccc(Cl)cc2)s1` [Example 242, (4-Methyl-5-(4-oxo-3-(4-chloro-phenyl)-3,4-dihydro-quinazolin-2-yl)-thiazol-2-yl)-carbamic acid ethyl ester], the inhibition in vivo at 50 mg/kg in the series on carageenan-induced edema (Rattus norvegicus) came out at 65%. In addition, the inhibition at 1 µM amounted to 53% in the series on NF-κB (setting [1]) and 12% in the series with AP-1. Also, in the series with NF-κB, the “inhibition of basal NF-κB-dependent luciferase expression” value is on record as “about 50%”.

Consider `Cc1nc(Nc2ccccc2)sc1-c1nc2ccccc2c(=O)n1-c1ccc(Cl)cc1` [Example 245, 2-(4-Methyl-2-phenylamino-thiazol-5-yl)-3-(4-chloro-phenyl)-3H-quinazolin-4-one], for which the inhibition in vivo at 50 mg/kg in the series with carageenan-induced edema (Rattus norvegicus) was found to be 72%. Further, the inhibition at 1 µM in the series on NF-κB (setting [1]) was 79%; in the series with AP-1, 82%.

Consider `Cc1nc(Nc2ccc(Cl)cc2)sc1-c1nc2ccccc2c(=O)n1-c1ccc(Cl)cc1` [Example 246, 2-[2-(4-Chlorophenylamino)-4-methyl-thiazol-5-yl]-3-(4-chloro-phenyl)-3H-quinazolin-4-one], for which the inhibition in vivo at 50 mg/kg in the series on carageenan-induced edema is 38%. Besides, the inhibition at 1 µM amounted to 96% with NF-κB (setting [1]) and 74% in the series on AP-1. Further, in the series on NF-κB, the “inhibition of basal NF-κB-dependent luciferase expression” value was “about 50%”.

For the compound `CCOC(=O)Nc1nc(-c2ccccc2)c(-c2nc3ccccc3c(=O)n2-c2ccc(Cl)cc2)s1` [Example 249, [5-(4-Oxo-3-(4-Chloro-phenyl)-3,4-dihydro-quinazolin-2-yl)-4-phenyl-thiazol-2-yl]-carbamic acid ethyl ester], the inhibition in vivo at 50 mg/kg in the series on carageenan-induced edema (Rattus norvegicus) was determined as 81%. For the same compound, the inhibition at 1 µM is 16% with NF-κB (setting [1]) and 0% in the series on AP-1.

With `COC(=O)Nc1nc(-c2ccccc2)c(-c2nc3ccccc3c(=O)n2-c2ccc(Cl)cc2)s1` [Example 250, [5-(4-Oxo-3-(4-Chloro-phenyl)-3,4-dihydro-quinazolin-2-yl)-4-phenyl-thiazol-2-yl]-carbamic acid methyl ester], the inhibition in vivo at 50 mg/kg with carageenan-induced edema (Rattus norvegicus) turned out to be 83%. Besides, the inhibition at 1 µM with NF-κB (setting [1]) was 17%; in the series on AP-1 it was 5%.

With `CNc1nc(-c2ccccc2)c(-c2nc3ccccc3c(=O)n2-c2ccc(Cl)cc2)s1` [Example 251, 2-(2-Methylamino-4-phenyl-thiazol-5-yl)-3-(4-Chloro-phenyl)-3H-quinazolin-4-one], the inhibition in vivo at 50 mg/kg with carageenan-induced edema amounted to 92%. Moreover, the inhibition at 1 µM in the series with NF-κB (setting [1]) was 85%; in the series with AP-1 it was 69%.

Consider `O=c1c2ccccc2nc(-c2sc(Nc3ccccc3)nc2-c2ccccc2)n1-c1ccc(Cl)cc1` [Example 252, 3-(4-Chloro-phenyl)-2-(4-phenyl-2-phenylamino-thiazol-5-yl)-3H-quinazolin-4-one], for which, in the series on carageenan-induced edema (Rattus norvegicus), the inhibition in vivo at 50 mg/kg stood at 81%. In addition, the results for the inhibition at 1 µM in the series with NF-κB (setting [1]) and in the series on AP-1 were 80% and 21%, respectively.

Consider `O=C(Nc1nc(-c2ccccc2)c(-c2nc3ccccc3c(=O)n2-c2ccc(Cl)cc2)s1)c1ccccc1` [Example 253, N-[5-(4-Oxo-3-(4-Chloro-phenyl)-3,4-dihydro-quinazolin-2-yl)-4-phenyl-thiazole-2-yl]benzamide], for which the inhibition in vivo at 50 mg/kg with carageenan-induced edema (Rattus norvegicus) came to 83%. Also, the inhibition at 1 µM with NF-κB (setting [1]) was 87%; with AP-1, 28%.

In the case of `O=c1c2ccccc2nc(-c2sc(Nc3ccc(Cl)cc3)nc2-c2ccccc2)n1-c1ccc(Cl)cc1` [Example 256, 2-[2-(4-Chloro-phenylamino)-4-phenyl-thiazol-5-yl]-3-(4-Chloro-phenyl)-3H-quinazolin-4-one], in the series with carageenan-induced edema (Rattus norvegicus), the inhibition in vivo at 50 mg/kg was 84%. The values for the inhibition at 1 µM with NF-κB (setting [1]) and with AP-1 were 99% and 61%, respectively.

Turning to `CNc1nc(C)c(-c2nc3ccccc3c(=O)n2-c2ccc(C(C)=O)cc2)s1` [Example 261, 2-(4-Methyl-2-methylamino-thiazol-5-yl)-3-(4-acetyl-phenyl)-3H-quinazolin-4-one], the inhibition in vivo at 50 mg/kg in the series on carageenan-induced edema (Rattus norvegicus) turned out to be 42%. The values for the inhibition at 1 µM with NF-κB (setting [1]) and with AP-1 were 71% and -33%, respectively.

Consider `CC(=O)c1ccc(-n2c(-c3sc(Nc4ccc(Cl)cc4)nc3C)nc3ccccc3c2=O)cc1` [Example 263, 2-[2-(4-Chlorophenylamino)-4-methyl-thiazol-5-yl]-3-(4-acetyl-phenyl)-3H-quinazolin-4-one], for which the inhibition in vivo at 50 mg/kg in the series on carageenan-induced edema (Rattus norvegicus) came to 13%. In addition, the results for the inhibition at 1 µM in the series with NF-κB (setting [1]) and in the series with AP-1 were 0% and 2%, respectively.

For the compound `CCOC(=O)Nc1nc(-c2ccccc2)c(-c2nc3ccccc3c(=O)n2-c2ccc(C(C)=O)cc2)s1` [Example 264, [5-(4-Oxo-3-(4-acetyl-phenyl)-3,4-dihydro-quinazolin-2-yl)-4-phenyl-thiazol-2-yl]-carbamic acid ethyl ester], the inhibition in vivo at 50 mg/kg with carageenan-induced edema (Rattus norvegicus) is 40%. In addition, the inhibition at 1 µM in the series on NF-κB (setting [1]) and in the series with AP-1 was 25% throughout.

As to `CC(=O)c1ccc(-n2c(-c3sc(Nc4ccc(Cl)cc4)nc3-c3ccccc3)nc3ccccc3c2=O)cc1` [Example 271, 2-[2-(4-Chlorophenylamino)-4-phenyl-thiazol-5-yl]-3-(4-acetyl-phenyl)-3H-quinazolin-4-one], the inhibition in vivo at 50 mg/kg with carageenan-induced edema (Rattus norvegicus) came to 23%. Also, the inhibition at 1 µM is -12% with NF-κB (setting [1]) and 31% in the series with AP-1.

As for “{5-[3-(4-Methoxy-phenyl)-4-oxo-3,4-dihydro-quinazolin-yl]-thiazol-2-yl}-carbamic acid ethyl ester [Example 215]”, the “% Protection” value with carageenan-induced edema is on record as 25%. The “NFkB inhibition @ 1 uM” value with NF-κB (setting [1]) amounted to 34. For the same compound, in the series on AP-1, the “AP-1 inhibition @ 1 uM” value was −6.

A word on the melting point: it is the temperature, or range, at which the solid turns liquid. The term inhibition denotes the drop in the measured response relative to a control, in per cent.
